These results are taken from patent publication US20240024216A1, “METHODS AND MATERIALS FOR TREATING HAIR LOSS” (The Penn State Research Foundation, priority 2021, published 2024).

This test deals with human foreskin primary keratinocytes. The test can be described thus: Keratinocyte scratch assay with 4-AP, NGF and NGF-antibody. Particulars: at 12 hours. It is filed as cell-based. The procedure: Keratinocytes (7×10^4 cells/well) with KC medium were seeded on collagen-I pre-coated 96-well ImageLock microplate for 6 hours. For the drug treatment cells were pretreated with 4-AP prior to coating for 16-18 hours. Next, the wound scratch was created using IncuCyte automated system. After scratches the cells washed with PBS and the respective cells medium was added with individual 1 mM of 4-AP and 200 ng/ml of NGF (MyBioSource, Inc., Catlog No. MBS7114974) in keratinocytes medium and combination of 1 mM of 4-AP & 200 ng/mL NGF with or without 10 μg/ml of NGF-antibody (ThermoFisher Scientific, Catlog No. MA5-32067). The plate was incubated in Incucyte automated imaging system, wound healing and cells migration imaged for every hour until 24 hour and analyzed for percent of closure as described above procedure.

As for “NGF: nerve growth factor (NGF), MyBioSource, used at 200 ng/ml in keratinocyte scratch assay”, the scratch closure (56% in control cultures, 1 mM 4-AP, 200 ng/ml NGF) came to 75%. In addition, the “scratch closure with NGF-neutralizing antibody” value (plus 10 μg/ml NGF-antibody) came out at 67%.
